Experimental data taken from patent US8735414B2 (priority 2009, dated 2014).

Experiments:
[1] = system: bicistronic HCV replicon (replicon RNA, GenBank Accession No. AJ242654); test: HCV Replicon Assay; format: cell-based; conditions: Hepatitis C virus, 72 h, read-out: Replicon IC50

SMILES | melting point [°C] | IC50 [1] [nM]
CC(C)NS(=O)(=O)c1cnc(-c2c(C(N)=O)c3ccc(OC(F)(F)F)cc3n2C2CCCC2)nc1 [compound 782, 1-cyclopentyl-2-[5-(propan-2-ylsulfamoyl)pyrimidin-2-yl]-6-(trifluoromethoxy)-1H-indole-3-carboxamide] | 238 to 241 | < 500
Cc1cc2c(cc1F)c(C(=O)N(C)C)c(-c1ccc(S(=O)(=O)N[C@@H](C)C(F)(F)F)cn1)n2C1CCCC1 [compound 783, 1-cyclopentyl-5-fluoro-N,N,6-trimethyl-2-(5-{[(2S)-1,1,1-trifluoropropan-2-yl]sulfamoyl}pyridin-2-yl)-1H-indole-3-carboxamide] | 278 to 280 | 2000 to 5000
CC(C)n1c(-c2ccc(S(=O)(=O)N[C@@H](C)C(F)(F)F)cn2)c(C#N)c2c(F)cc(OC(F)F)cc21 [compound 784, 6-[3-cyano-6-(difluoromethoxy)-4-fluoro-1-(propan-2-yl)-1H-indol-2-yl]-N-[(2S)-1,1,1-trifluoropropan-2-yl]pyridine-3-sulfonamide] | 193 to 194 | < 500
Cc1cc2c(cc1Cl)c(C#N)c(-c1ccc(S(=O)(=O)N[C@@H](C)C(F)(F)F)cn1)n2-c1ncccn1 [compound 785, 6-[5-chloro-3-cyano-6-methyl-1-(pyrimidin-2-yl)-1H-indol-2-yl]-N-[(2S)-1,1,1-trifluoropropan-2-yl]pyridine-3-sulfonamide] | 210 to 212 | < 500
CCCn1c(-c2ccc(S(=O)(=O)N[C@@H](C)C(F)(F)F)cn2)c(C#N)c2cc(F)c(OC(F)F)cc21 [compound 786, 6-[3-cyano-6-(difluoromethoxy)-5-fluoro-1-propyl-1H-indol-2-yl]-N-[(2S)-1,1,1-trifluoropropan-2-yl]pyridine-3-sulfonamide] | 162 to 168 | < 500
C[C@H](NS(=O)(=O)c1ccc(-c2c(C#N)c3cc(F)c(OC(F)F)cc3n2CC2CC2)nc1)C(F)(F)F [compound 787, 6-[3-cyano-1-(cyclopropylmethyl)-6-(difluoromethoxy)-5-fluoro-1H-indol-2-yl]-N-[(2S)-1,1,1-trifluoropropan-2-yl]pyridine-3-sulfonamide] | 149 to 153 | < 500
CCCn1c(-c2ccc(S(=O)(=O)N[C@H](C)C(F)(F)F)cn2)c(C#N)c2cc(F)c(OC(F)F)cc21 [compound 788, 6-[3-cyano-6-(difluoromethoxy)-5-fluoro-1-propyl-1H-indol-2-yl]-N-[(2R)-1,1,1-trifluoropropan-2-yl]pyridine-3-sulfonamide] | 160 to 166 | < 500
C[C@@H](NS(=O)(=O)c1ccc(-c2c(C#N)c3cc(F)c(OC(F)F)cc3n2CC2CC2)nc1)C(F)(F)F [compound 789, 6-[3-cyano-1-(cyclopropylmethyl)-6-(difluoromethoxy)-5-fluoro-1H-indol-2-yl]-N-[(2R)-1,1,1-trifluoropropan-2-yl]pyridine-3-sulfonamide] | 148 to 153 | < 500
N#Cc1c(-c2ccc(S(=O)(=O)Nc3ccccc3)cn2)n(C2CCC2)c2cc(OC(F)F)c(F)cc12 [compound 791, 6-[3-cyano-1-cyclobutyl-6-(difluoromethoxy)-5-fluoro-1H-indol-2-yl]-N-phenylpyridine-3-sulfonamide] | 178 to 179 | 2000 to 5000
Cc1cc2c(cc1F)c(C(=O)O)c(-c1ccc(S(=O)(=O)N[C@@H](C)C(F)(F)F)cn1)n2C1CCC1 [compound 793, 1-cyclobutyl-5-fluoro-6-methyl-2-(5-{[(2S)-1,1,1-trifluoropropan-2-yl]sulfamoyl}pyridin-2-yl)-1H-indole-3-carboxylic acid] | 234 to 240 | < 500
Cc1cc2c(cc1F)c(C(=O)O)c(-c1ncc(S(=O)(=O)NC(C)(C)C)cn1)n2C1CCC1 [compound 794, 2-[5-(tert-butylsulfamoyl)pyrimidin-2-yl]-1-cyclobutyl-5-fluoro-6-methyl-1H-indole-3-carboxylic acid] | 194 to 201 | 2000 to 5000
CNC(=O)c1c(-c2ccc(S(=O)(=O)NC(C)(C)C)cn2)n(C2CCC2)c2cc(C)c(F)cc12 [compound 795, 2-[5-(tert-butylsulfamoyl)pyridin-2-yl]-1-cyclobutyl-5-fluoro-N,6-dimethyl-1H-indole-3-carboxamide] | 215 to 218 | < 500
Cc1cc2c(cc1O)c(C#N)c(-c1ccc(S(=O)(=O)N[C@@H](C)C(F)(F)F)cn1)n2C1CCC1 [compound 796, 6-(3-cyano-1-cyclobutyl-5-hydroxy-6-methyl-1H-indol-2-yl)-N-[(2S)-1,1,1-trifluoropropan-2-yl]pyridine-3-sulfonamide] | 193 to 195 | < 500
C[C@H](NS(=O)(=O)c1ccc(-c2c(C#N)c3c(F)cc(OC(F)F)cc3n2C2CCC2)nc1)C(F)(F)F [compound 797, 6-[3-cyano-1-cyclobutyl-6-(difluoromethoxy)-4-fluoro-1H-indol-2-yl]-N-[(2S)-1,1,1-trifluoropropan-2-yl]pyridine-3-sulfonamide] | 210 to 212 | < 500
NC(=O)c1c(-c2ccc(S(=O)(=O)Nc3ccccc3)cn2)n(C2CCC2)c2cc(OC(F)F)c(F)cc12 [compound 798, 1-cyclobutyl-6-(difluoromethoxy)-5-fluoro-2-[5-(phenylsulfamoyl)pyridin-2-yl]-1H-indole-3-carboxamide] | 204 to 206 | 500 to 2000
CNC(=O)c1c(-c2ccc(S(=O)(=O)NC(C)(C)C)cn2)n(C2CCCC2)c2cc(C)c(F)cc12 [compound 799, 2-[5-(tert-butylsulfamoyl)pyridin-2-yl]-1-cyclopentyl-5-fluoro-N,6-dimethyl-1H-indole-3-carboxamide] | 248 to 250 | < 500
Cc1cc2c(cc1F)c(C(N)=O)c(-c1ccc(S(=O)(=O)NC(C)(C)C)cn1)n2C1CCC1 [compound 800, 2-[5-(tert-butylsulfamoyl)pyridin-2-yl]-1-cyclobutyl-5-fluoro-6-methyl-1H-indole-3-carboxamide] | 189 to 193 | < 500
CNC(=O)c1c(-c2ncc(S(=O)(=O)NC(C)(C)C)cn2)n(C2CCC2)c2cc(C)c(F)cc12 [compound 802, 2-[5-(tert-butylsulfamoyl)pyrimidin-2-yl]-1-cyclobutyl-5-fluoro-N,6-dimethyl-1H-indole-3-carboxamide] | 211 to 213 | < 500
Cc1cc2c(cc1Cl)c(C#N)c(-c1ccc(S(=O)(=O)N[C@@H](C)C(F)(F)F)cn1)n2-c1ccccn1 [compound 803, 6-[5-chloro-3-cyano-6-methyl-1-(pyridin-2-yl)-1H-indol-2-yl]-N-[(2S)-1,1,1-trifluoropropan-2-yl]pyridine-3-sulfonamide] | 210 to 212 | < 500
Cc1cc2c(cc1Cl)c(C#N)c(-c1ccc(S(=O)(=O)N[C@@H](C)C(F)(F)F)cn1)n2-c1ccc(F)cn1 [compound 804, 6-[5-chloro-3-cyano-1-(5-fluoropyridin-2-yl)-6-methyl-1H-indol-2-yl]-N-[(2S)-1,1,1-trifluoropropan-2-yl]pyridine-3-sulfonamide] | 210 to 212 | < 500
